In patent US20230233569A1 (Revolution Medicines, Inc., priority 2020, published 2023):
Values joined by “and” are separate entries in the source; they are usually repeats but may differ in a detail not shown here. Identical values can stand only once. Like-named read-outs stand apart in the source and are kept apart here.

Columns and labels:
Capan-1 (K-Ras G12V) = experiment: CellTiter-Glo cell viability assay, 5-day treatment; format: cell-based; conditions: Homo sapiens, CAPAN-1, 120 h, 5-day treatment; read-out: Capan-1 Cell Viability assay data (K-Ras G12V, IC50)
How it was run: (§1)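 Viability is read as luminescence on day 5 after direct compound addition to plated cells, following about 30 minutes' room-temperature equilibration. Each signal is scaled to mean DMSO as 100%.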

NCI-H358 (K-Ras G12C) = experiment: as above; format: cell-based; conditions: Homo sapiens, NCI-H358, 120 h, 5-day treatment; read-out: H358 Cell Viability assay data (K-Ras G12C, IC50)
How it was run: as §1

KRAS G12C = KRAS G12C (Homo sapiens, UniProt P01116+P62937, G12C); experiment: Disruption of BRAF RBD interaction with Ras (FRET / MOA assay, with Cyclophilin A); format: biochemical
KRAS G12C, sequence (P01116 1-169 isoform P01116-2 G12C): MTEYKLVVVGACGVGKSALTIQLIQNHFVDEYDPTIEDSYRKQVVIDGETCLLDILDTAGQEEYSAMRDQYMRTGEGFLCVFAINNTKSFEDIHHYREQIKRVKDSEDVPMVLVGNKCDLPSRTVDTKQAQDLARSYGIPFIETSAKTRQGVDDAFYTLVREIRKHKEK
KRAS G12C, sequence (P62937 whole entry): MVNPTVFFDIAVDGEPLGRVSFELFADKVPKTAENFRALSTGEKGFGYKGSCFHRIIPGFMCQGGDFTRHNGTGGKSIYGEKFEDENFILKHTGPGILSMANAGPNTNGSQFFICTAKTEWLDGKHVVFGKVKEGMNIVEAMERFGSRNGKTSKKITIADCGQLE
How it was run: (§2)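 Biochemical TR-FRET disruption assay: nucleotide-loaded K-Ras with Cyclophilin A and a BRAF RBD construct, compound titrated over 10 points from 30 μM (final).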

KRAS G12D = KRAS G12D (Homo sapiens, UniProt P01116+P62937, G12D); experiment: as above; format: biochemical
KRAS G12D, sequence (P01116 1-169 isoform P01116-2 G12D limits assumed): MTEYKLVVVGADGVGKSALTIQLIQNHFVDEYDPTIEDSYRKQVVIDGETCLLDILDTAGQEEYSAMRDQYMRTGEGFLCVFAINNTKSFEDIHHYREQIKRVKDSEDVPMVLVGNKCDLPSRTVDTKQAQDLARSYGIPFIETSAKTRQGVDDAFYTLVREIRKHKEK
KRAS G12D, sequence (P62937 whole entry): as the sequence (P62937 whole entry) above
How it was run: as §2

KRAS G12S = KRAS G12S (Homo sapiens, UniProt P01116+P62937, G12S); experiment: as above; format: biochemical
KRAS G12S, sequence (P01116 1-169 isoform P01116-2 G12S limits assumed): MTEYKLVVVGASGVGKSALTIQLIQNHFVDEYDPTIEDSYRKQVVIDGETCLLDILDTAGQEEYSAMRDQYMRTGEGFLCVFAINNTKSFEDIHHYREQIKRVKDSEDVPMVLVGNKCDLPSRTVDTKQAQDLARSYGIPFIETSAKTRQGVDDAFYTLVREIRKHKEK
KRAS G12S, sequence (P62937 whole entry): as the sequence (P62937 whole entry) above
How it was run: as §2

KRAS G12V = KRAS G12V (Homo sapiens, UniProt P01116+P62937, G12V); experiment: as above; format: biochemical
KRAS G12V, sequence (P01116 1-169 isoform P01116-2 G12V limits assumed): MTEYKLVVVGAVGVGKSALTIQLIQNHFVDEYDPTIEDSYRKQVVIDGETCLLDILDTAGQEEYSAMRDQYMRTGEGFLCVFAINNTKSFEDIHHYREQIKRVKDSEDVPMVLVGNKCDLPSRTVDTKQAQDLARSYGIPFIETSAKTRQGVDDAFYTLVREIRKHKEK
KRAS G12V, sequence (P62937 whole entry): as the sequence (P62937 whole entry) above
How it was run: as §2

KRAS G13C = KRAS G13C (Homo sapiens, UniProt P01116+P62937, G13C); experiment: as above; format: biochemical
KRAS G13C, sequence (P01116 1-169 isoform P01116-2 G13C): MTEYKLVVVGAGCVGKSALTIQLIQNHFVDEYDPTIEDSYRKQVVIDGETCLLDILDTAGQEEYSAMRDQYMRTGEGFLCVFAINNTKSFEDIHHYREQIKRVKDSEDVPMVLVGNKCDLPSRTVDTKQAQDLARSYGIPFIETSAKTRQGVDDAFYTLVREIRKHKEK
KRAS G13C, sequence (P62937 whole entry): as the sequence (P62937 whole entry) above
How it was run: as §2

KRAS G13D = KRAS G13D (Homo sapiens, UniProt P01116+P62937, G13D); experiment: as above; format: biochemical
KRAS G13D, sequence (P01116 1-169 isoform P01116-2 G13D limits assumed): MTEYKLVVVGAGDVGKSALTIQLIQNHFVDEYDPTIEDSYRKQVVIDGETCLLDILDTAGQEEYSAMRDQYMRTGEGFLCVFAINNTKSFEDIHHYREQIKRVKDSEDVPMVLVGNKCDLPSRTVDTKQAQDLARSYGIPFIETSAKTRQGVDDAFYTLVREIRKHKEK
KRAS G13D, sequence (P62937 whole entry): as the sequence (P62937 whole entry) above
How it was run: as §2

KRAS WT = KRAS WT (Homo sapiens, UniProt P01116+P62937); experiment: as above; format: biochemical
KRAS WT, sequence (P01116 1-169 isoform P01116-2 limits assumed): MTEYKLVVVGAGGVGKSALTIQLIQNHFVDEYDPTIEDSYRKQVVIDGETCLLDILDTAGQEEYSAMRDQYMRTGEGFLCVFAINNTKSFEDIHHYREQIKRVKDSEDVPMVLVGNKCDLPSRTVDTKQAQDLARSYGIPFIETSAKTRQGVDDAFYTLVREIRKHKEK
KRAS WT, sequence (P62937 whole entry): as the sequence (P62937 whole entry) above
How it was run: as §2

NRAS G12C = NRAS G12C (Homo sapiens, UniProt P01111+P62937, G12C); experiment: as above; format: biochemical
NRAS G12C, sequence (P01111 whole entry G12C): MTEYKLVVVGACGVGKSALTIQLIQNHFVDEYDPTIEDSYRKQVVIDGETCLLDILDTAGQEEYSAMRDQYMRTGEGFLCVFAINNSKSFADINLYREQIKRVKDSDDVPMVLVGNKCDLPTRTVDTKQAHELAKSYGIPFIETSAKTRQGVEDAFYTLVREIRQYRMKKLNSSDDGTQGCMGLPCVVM
NRAS G12C, sequence (P62937 whole entry): as the sequence (P62937 whole entry) above

[1] = read-out: KRAS G12C FRET data, IC50
[2] = read-out: KRAS G12D FRET data, IC50
[3] = read-out: KRAS G12S FRET data, IC50
[4] = KRAS G12V, read-out: KRAS G12V FRET data IC50
[5] = read-out: KRAS G13C FRET data, IC50
[6] = KRAS G13D, read-out: KRAS G13D FRET data IC50
[7] = KRAS WT, read-out: KRAS WT FRET data IC50
[8] = NRAS G12C, read-out: NRAS G12C FRET data IC50

IC50 (NCI-H358 (K-Ras G12C)) | IC50 (KRAS G12C; [1]) | IC50 (KRAS G12D; [2]) | IC50 (KRAS G12S; [3]) | IC50 (KRAS G12V; [4]) | IC50 (KRAS G13C; [5]) | IC50 (KRAS G13D; [6]) | IC50 (KRAS WT; [7]) | IC50 (NRAS G12C; [8]) | SMILES | IC50 (Capan-1 (K-Ras G12V)) | IC50 (KRAS G12C; KRAS G12C FRET data, IC50) | IC50 (KRAS G12D; KRAS G12D FRET data, IC50) | IC50 (KRAS G12S; KRAS G12S FRET data, IC50) | IC50 (KRAS G12V; KRAS G12V FRET data IC50, KRAS G12V) | IC50 (KRAS G13C; KRAS G13C FRET data, IC50) | IC50 (KRAS G13D; KRAS G13D FRET data IC50, KRAS G13D) | IC50 (KRAS WT; KRAS WT FRET data IC50, KRAS WT) | IC50 (NRAS G12C; NRAS G12C FRET data IC50, NRAS G12C)
100 to 1000 nM | 1000 to 10000 nM | > 10000 nM | 1000 to 10000 nM | 1000 to 10000 nM | 1000 to 10000 nM | 1000 to 10000 nM | 1000 to 10000 nM | 1000 to 10000 nM | CCn1c(-c2cccnc2[C@H](C)OC)c2c3cc(ccc31)-c1csc(n1)C[C@H](NC(=O)[C@H](C(C)C)N(C)C(=O)[C@H]1CCCO1)C(=O)N1CCC[C@H](N1)C(=O)OCC(C)(C)C2 [Example A238] | 100 to 1000 nM |  |  |  |  |  |  |  | 
100 to 1000 nM | 1000 to 10000 nM | 1000 to 10000 nM | 1000 to 10000 nM | 1000 to 10000 nM | 1000 to 10000 nM | 1000 to 10000 nM | 1000 to 10000 nM | 1000 to 10000 nM | CCn1c(-c2cccnc2[C@H](C)OC)c2c3cc(ccc31)-c1csc(n1)C[C@H](NC(=O)[C@H](C(C)C)N(C)C(=O)[C@@H]1C[C@@H]1C)C(=O)N1CCC[C@H](N1)C(=O)OCC(C)(C)C2 [Example A239] | 100 to 1000 nM |  |  |  |  |  |  |  | 
100 to 1000 nM | 10 to 100 nM | 100 to 1000 nM | 100 to 1000 nM | 100 to 1000 nM | 10 to 100 nM | 100 to 1000 nM | 10 to 100 nM | 100 to 1000 nM | CCn1c(-c2cccnc2[C@H](C)OC)c2c3cc(ccc31)-c1cc(O)cc(c1)C[C@H](NC(=O)[C@H](C(C)C)N(C)C(=O)[C@H]1C[C@H](O)C1)C(=O)N1CCC[C@H](N1)C(=O)OCC(C)(C)C2 [Example A241] | 100 to 1000 nM |  |  |  |  |  |  |  | 
100 to 1000 nM | 10 to 100 nM | 10 to 100 nM | 10 to 100 nM | 100 to 1000 nM | 10 to 100 nM | 10 to 100 nM | 10 to 100 nM | 10 to 100 nM | CCn1c(-c2cccnc2[C@H](C)OC)c2c3cc(ccc31)-c1cc(O)cc(c1)C[C@H](NC(=O)[C@H](C(C)C)N(C)C(=O)[C@H]1CCCNC1)C(=O)N1CCC[C@H](N1)C(=O)OCC(C)(C)C2 [Example A243] | > 10000 nM |  |  |  |  |  |  |  | 
10 to 100 nM | 10 to 100 nM | 100 to 1000 nM | 10 to 100 nM | 100 to 1000 nM and 10 to 100 nM | 10 to 100 nM | 100 to 1000 nM and 10 to 100 nM | 100 to 1000 nM and 10 to 100 nM | 10 to 100 nM | CCN1CC(C(=O)N(C)[C@H](C(=O)N[C@H]2Cc3cc(O)cc(c3)-c3ccc4c(c3)c(c(-c3cccnc3[C@H](C)OC)n4CC)CC(C)(C)COC(=O)[C@@H]3CCCN(N3)C2=O)C(C)C)CC1=O (stereo partly drawn) [Example A248] | 100 to 1000 nM |  |  |  |  |  |  |  | 
1000 to 10000 nM | 100 to 1000 nM | 100 to 1000 nM | 100 to 1000 nM | 1000 to 10000 nM | 100 to 1000 nM | 100 to 1000 nM | 100 to 1000 nM | 100 to 1000 nM | CCn1c(-c2cnccc2COC)c2c3cc(ccc31)-c1cc(O)cc(c1)C[C@H](NC(=O)[C@H](C(C)C)N(C)C(=O)[C@@H]1CCCN(C)C1)C(=O)N1CCC[C@H](N1)C(=O)OCC(C)(C)C2 [Example A259] | 1000 to 10000 nM |  |  |  |  |  |  |  | 
100 to 1000 nM | 100 to 1000 nM | 1000 to 10000 nM | 100 to 1000 nM | 1000 to 10000 nM | 1000 to 10000 nM | 1000 to 10000 nM | 100 to 1000 nM | 100 to 1000 nM | CCn1c(-c2cnccc2COC)c2c3cc(ccc31)-c1cc(O)cc(c1)C[C@H](NC(=O)[C@H](C(C)C)N(C)C(=O)O[C@H]1CCOC1)C(=O)N1CCC[C@H](N1)C(=O)OCC(C)(C)C2 [Example A260] | 1000 to 10000 nM |  |  |  |  |  |  |  | 
1000 to 10000 nM | 1000 to 10000 nM | > 10000 nM | 1000 to 10000 nM | 1000 to 10000 nM | 1000 to 10000 nM | 1000 to 10000 nM | 1000 to 10000 nM | 1000 to 10000 nM | CCn1c(-c2cnccc2COC)c2c3cc(ccc31)-c1cc(O)cc(c1)C[C@H](NC(=O)C1CCCC1C(F)F)C(=O)N1CCC[C@H](N1)C(=O)OCC(C)(C)C2 (stereo partly drawn) [Example A261] | 1000 to 10000 nM |  |  |  |  |  |  |  | 

SMILES | IC50 (NCI-H358 (K-Ras G12C)) | IC50 (KRAS G12C; [1]) | IC50 (KRAS G12D; [2]) | IC50 (KRAS G12S; [3]) | IC50 (KRAS G12V; [4]) | IC50 (KRAS G13C; [5]) | IC50 (KRAS G13D; [6]) | IC50 (KRAS WT; [7]) | IC50 (NRAS G12C; [8]) | IC50 (Capan-1 (K-Ras G12V)) | IC50 (KRAS G12C; KRAS G12C FRET data, IC50) | IC50 (KRAS G12D; KRAS G12D FRET data, IC50) | IC50 (KRAS G12S; KRAS G12S FRET data, IC50) | IC50 (KRAS G12V; KRAS G12V FRET data IC50, KRAS G12V) | IC50 (KRAS G13C; KRAS G13C FRET data, IC50) | IC50 (KRAS G13D; KRAS G13D FRET data IC50, KRAS G13D) | IC50 (KRAS WT; KRAS WT FRET data IC50, KRAS WT) | IC50 (NRAS G12C; NRAS G12C FRET data IC50, NRAS G12C)
CCN1C[C@@H](C(=O)N(C)[C@H](C(=O)N[C@H]2Cc3cc(O)cc(c3)-c3ccc4c(c3)c(c(-c3cnccc3COC)n4CC)CC(C)(C)COC(=O)[C@@H]3CCCN(N3)C2=O)C(C)C)CC1=O [Example A262] | 1000 to 10000 nM |  |  |  |  |  |  |  |  | 1000 to 10000 nM | 10 to 100 nM | 1000 to 10000 nM | 100 to 1000 nM | 100 to 1000 nM | 100 to 1000 nM | 100 to 1000 nM | 100 to 1000 nM | 100 to 1000 nM
